PubChem BioAssay AID687005 (Broad Institute, 2013)
Results filed as inconclusive are left out. Activity calls are given as the source filed them.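 How the source made its calls: active means Compounds that reduce signal, with fitted half-maximal dose at or under twice the top valid tested dose; inconclusive means Poor fit, or flat curve losing 30 to 70% of signal; inactive means Potency past limit, flat within 30%, or opposite direction.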

Experiment: viability loss in HEK293T cells – cell-based, ATP luminescence, cherry-pick samples, cytotoxicity control, dose response (AID 687005)
Details: HEK293T viability, ATP luminescence (CellTiter-Glo), 48 h

| SMILES | activity change, negative = cytotoxicity (at 26 µM (top of the series)) | also measured |
| --- | --- | --- |
| Cc1ccc(S(=O)(=O)N2C[C@@H](O)COC[C@@H]3O[C@H](CC(=O)NCc4ccc5c(c4)OCO5)CC[C@H]32)cc1 | 46.9% (inactive) |  |
| C[C@H](O)C#Cc1cnc2c(c1)C(=O)N([C@@H](C)CO)C[C@@H](C)[C@@H](CN(C)C(=O)Cc1ccncc1)O2 | 0.451% (inactive) |  |
| NC(=O)CN(c1ccccc1)S(=O)(=O)c1ccc(F)cc1 |  | activity change, negative = cytotoxicity (at 30 µM (top of the series)): -2.68% (inactive) |
| O=C([C@H]1[C@H](CO)[C@H]2Cn3c(cccc3=O)[C@@H]1N2Cc1cccc(Cl)c1)N1CCOCC1 | -20.6% (inactive) |  |
| C[C@H]1CN([C@@H](C)CO)C(=O)c2cc(-c3cncnc3)cnc2O[C@H]1CN(C)C(=O)c1ccccc1F | 4.74% (inactive) |  |
| CO[C@@H]1CN(C)C(=O)c2cc(NS(=O)(=O)c3cccc(C)c3)ccc2OC[C@@H](C)NC[C@H]1C | 4.92% (inactive) |  |
| Cc1noc(C)c1NC(=O)Nc1ccc2c(c1)C(=O)N([C@H](C)CO)C[C@H](C)[C@H](CN(C)CC1CCCCC1)O2 | 40.9% (inactive) |  |
| CCCCN1C(=S)NC[C@@H]1Cc1ccccc1 | 6.24% (inactive) |  |
| Cc1cc(C)cc(OCC(=O)NC(C)c2ccccc2)c1 (centres undefined) | 14.9% (inactive) |  |
| C[C@@H](NC(=O)C[C@@H]1CC[C@H]2[C@@H](COC[C@@H](O)CN2Cc2cc(F)ccc2F)O1)c1ccccc1 | -19.7% (inactive) |  |
| Cc1ccccc1NC(=O)C(NC1CCCCC1)C(C)C (centres undefined) | -12.2% (inactive) |  |
| O=C(C[C@@H]1C[C@@H]2c3cc(NC(=O)C4CCC4)ccc3O[C@@H]2[C@H](CO)O1)NCc1cccc(F)c1 | 3.17% (inactive) |  |
| C[C@@H]1CN([C@@H](C)CO)C(=O)c2cc(-c3cncnc3)cnc2O[C@H]1CN(C)C(=O)Cc1ccccc1 | -0.143% (inactive) |  |
| CO[C@H]1CC[C@H]2CCOc3c(C#N)cccc3C(=O)N(C)C[C@@H](C)C(=O)N(C)C[C@H]1O2 | -16.5% (inactive) |  |
| C[C@@H]1CN([C@@H](C)CO)C(=O)c2cc(NC(=O)Nc3cccc4ccccc34)ccc2O[C@@H]1CN(C)C(=O)Nc1ccccc1 | 42.1% (inactive) |  |
| Cc1noc(C)c1NC(=O)N(C)C[C@H]1Oc2ccc(NC(=O)C3CC3)cc2CC(=O)N([C@@H](C)CO)C[C@H]1C | 0.766% (inactive) |  |
| C[C@@H]1CN([C@H](C)CO)C(=O)Cc2cc(NC(=O)CCCCCC(=O)Nc3ccccc3N)ccc2O[C@H]1CN(C)Cc1ccc2c(c1)OCO2 |  | activity change, negative = cytotoxicity (at 21 µM (top of the series)): -2.18% (inactive) |
| COc1cccc(-c2ccc3c(c2)[C@H]2[C@H](CCN2C(=O)Cc2ccncc2)[C@H](CO)N3C)c1 | 125% (inactive) |  |
| CCCC#Cc1cnc2c(c1)C(=O)N([C@@H](C)CO)C[C@H](C)[C@H](CN(C)C(=O)Nc1cccc(F)c1)O2 | 42% (inactive) |  |
| O=C1CCC(C(=O)Nc2cccc3ccccc23)N1 (centres undefined) | 25.1% (inactive) |  |
| CNC[C@@H]1OCCCC[C@H](C)Oc2ccc(NC(=O)NC(C)C)cc2C(=O)N([C@H](C)CO)C[C@H]1C | 14.1% (inactive) |  |
| CC(C)NC(=O)N[C@H]1CC[C@@H](CCNC(=O)C2CC2)O[C@H]1CO | 6.21% (inactive) |  |

| SMILES | activity change, negative = cytotoxicity (at 26 µM (top of the series)) | also measured |
| --- | --- | --- |
| CNC(=O)C[C@@H]1CC[C@@H]2[C@H](COC[C@@H](O)CN2C(=O)Nc2ccc3c(c2)OCO3)O1 | 25% (inactive) |  |
| CC(C)CC#Cc1cnc2c(c1)C(=O)N([C@H](C)CO)C[C@H](C)[C@H](CN(C)C(=O)c1cccnc1)O2 | -8.15% (inactive) |  |
| C[C@@H]1CN([C@@H](C)CO)C(=O)CCCn2nncc2CO[C@H]1CN(C)C(=O)Oc1cccc2ccccc12 |  | activity change, negative = cytotoxicity (at 23.5 µM (top of the series)): 17.9% (inactive) |
| C[C@H]1CN([C@@H](C)CO)C(=O)Cc2cc(NC(=O)Nc3ccccc3)ccc2O[C@H]1CN(C)C(=O)Nc1ccc2c(c1)OCO2 | -2.2% (inactive) |  |
| C[C@H](CO)N1C[C@H](C)[C@H](CN(C)C(=O)NC2CCCCC2)OCCCC[C@H](C)Oc2ccc(NC(=O)C3CCCCC3)cc2C1=O | 15% (inactive) |  |
| CC1(C(=O)Nc2ccc3ccccc3c2)CCC(=O)N1C1CC1 (centres undefined) | -28.4% (inactive) |  |
| COCC(=O)NC[C@@H]1N[C@@H](CO)[C@H]1c1ccc(C2=CCCC2)cc1 | 26.4% (inactive) |  |
| Cc1cc(C)c(NC(=O)C2CCCCN2C)c(C)c1 (centres undefined) | 10.1% (inactive) |  |
| CCc1ccc(C(C)NC(=S)NCc2ccc(F)cc2)cc1 (centres undefined) | 17.2% (inactive) |  |
| O=C(N[C@H]1CC[C@@H](CCn2cc(-c3ccccc3)nn2)O[C@@H]1CO)c1cnccn1 | 40.7% (inactive) |  |
| CCNC(=O)CN(c1ccc(Cl)cc1)S(=O)(=O)c1ccccc1 | 4.12% (inactive) |  |
| COc1cccc(-c2cn(CC[C@@H]3CC[C@@H](NC(C)=O)[C@H](CO)O3)nn2)c1 | 53.3% (inactive) |  |
| C[C@@H]1CCCCO[C@@H](CN(C)C(=O)Nc2cccc3ccccc23)[C@@H](C)CN([C@H](C)CO)C(=O)c2cc(NS(=O)(=O)c3ccccc3)ccc2O1 | 6.51% (inactive) |  |
| O=C(C[C@H]1CC[C@H]2[C@@H](COC[C@H](O)CN2Cc2cc(F)cc(F)c2)O1)Nc1nccs1 | 0.29% (inactive) |  |
| CO[C@@H]1CN(C)C(=O)c2ccc(NC(=O)C3CC3)cc2OC[C@H](C)N(Cc2ccc(F)cc2)C[C@H]1C | -10.4% (inactive) |  |
| COc1ccc(-c2cnc3c(c2)C(=O)N([C@@H](C)CO)C[C@H](C)[C@@H](CN(C)S(C)(=O)=O)O3)cc1 | -11.2% (inactive) |  |
| C[C@@H]1CCCCO[C@@H](CN(C)Cc2ccc3c(c2)OCO3)[C@@H](C)CN([C@H](C)CO)C(=O)c2cc(NS(=O)(=O)c3ccc(F)cc3)ccc2O1 |  | activity change, negative = cytotoxicity (at 23.5 µM (top of the series)): -35.2% (inactive) |
| COc1ccc(CN(C)C[C@@H]2Oc3ccc(NC(=O)Nc4ccc(F)cc4)cc3CC(=O)N([C@H](C)CO)C[C@H]2C)cc1 | -7.45% (inactive) |  |
| C[C@H]1CN([C@@H](C)CO)C(=O)c2cccc(NS(C)(=O)=O)c2O[C@H]1CN(C)C(=O)Nc1ccc2c(c1)OCO2 | 20.3% (inactive) |  |
| COc1ccc(CN(C)C[C@H]2OCCCC[C@@H](C)Oc3ccc(NC(=O)c4ccccc4)cc3C(=O)N([C@H](C)CO)C[C@@H]2C)cc1 |  | activity change, negative = cytotoxicity (at 23.5 µM (top of the series)): -10.4% (inactive) |
| C[C@@H]1CN([C@@H](C)CO)C(=O)Cc2cc(NC(=O)Nc3cccc4ccccc34)ccc2O[C@@H]1CN(C)S(=O)(=O)c1cccs1 | 153% (inactive) |  |
| O=C(NC(=S)Nc1ccccc1N1CCOCC1)c1ccccc1F | -0.484% (inactive) |  |

| SMILES | activity change, negative = cytotoxicity (at 26 µM (top of the series)) | also measured |
| --- | --- | --- |
| COC(=O)C1=C(C)N(Cc2ccccc2)C(=S)N[C@H]1c1cccc(C(F)(F)F)c1 | -25.6% (inactive) |  |
| CCCNC(=O)N(C)C[C@@H]1Oc2ncc(C#CC3CCCCC3)cc2C(=O)N([C@H](C)CO)C[C@@H]1C | -14% (inactive) |  |
| CC=Cc1ccc2n(c1=O)C[C@H]1[C@H](CO)[C@@H](C(=O)N3CCOCC3)N(CC3CC3)[C@@H]21 (mixture of isomers) | 2.31% (inactive) |  |
| Cc1noc(C)c1NC(=O)Nc1ccc2c(c1)C(=O)N([C@@H](C)CO)C[C@H](C)[C@H](CN(C)CC1CCCCC1)O2 | -11.6% (inactive) |  |
| CC=Cc1ccc2n(c1=O)C[C@@H]1[C@@H](CO)[C@H](C(=O)N3CCCCC3)N(Cc3ccccc3)[C@H]21 (mixture of isomers) | 11.7% (inactive) |  |
| O=C(Oc1ccc2c3c(c(=O)oc2c1)CCCC3)c1ccco1 | -27.5% (inactive) |  |
| CC(C)NC(=O)Nc1ccc2c(c1)C(=O)N([C@@H](C)CO)C[C@H](C)[C@@H](CN(C)C(=O)CCC(F)(F)F)OCCCC[C@H](C)O2 | 42.8% (inactive) |  |
| COc1cccc(-c2cn(CC[C@@H]3CC[C@H](NC(C)=O)[C@@H](CO)O3)nn2)c1 | 8.26% (inactive) |  |
| CCCNC(=O)N1C[C@H](O)COC[C@H]2O[C@H](CC(=O)N3CCN(C)CC3)CC[C@@H]21 | -14.1% (inactive) |  |
| O=C(C[C@H]1C[C@H]2c3cc(NC(=O)C4CCC4)ccc3O[C@H]2[C@@H](CO)O1)NCc1cccc(F)c1 |  | activity change, negative = cytotoxicity (at 23.5 µM (top of the series)): -5.36% (inactive) |
| O=C(C[C@H]1CC[C@@H]2[C@H](COC[C@@H](O)CN2Cc2cccc(C(F)(F)F)c2)O1)NCc1ccc(Cl)cc1 |  | activity change, negative = cytotoxicity (at 23.5 µM (top of the series)): 16.8% (inactive) |
| O=C(NC(=S)Nc1ccc(CN2CCOCC2)cc1)c1ccc([N+](=O)[O-])cc1 | -19.4% (inactive) |  |
| Cc1ccc(C)c(NC(=O)C2CCCN2C(=O)NC2CCCCC2)c1 (centres undefined) | 25.9% (inactive) |  |
| CC(=O)NNC(=O)CSc1nnc(-c2ccccc2)c(-c2ccccc2)n1 | -4.35% (inactive) |  |
| CO[C@H]1CN(C)C(=O)c2cc(NS(=O)(=O)c3ccc(C)cc3)ccc2OC[C@H](C)N(C)C[C@H]1C | 13.7% (inactive) |  |
| C[C@H]1CN([C@@H](C)CO)C(=O)Cc2cc(NC(=O)C3CC3)ccc2O[C@@H]1CN(C)C(=O)Nc1cccc2ccccc12 |  | activity change, negative = cytotoxicity (at 23.5 µM (top of the series)): -3.99% (inactive) |
| C[C@H](CO)N1C[C@H](C)[C@@H](CN(C)Cc2ccncc2)OCCCC[C@H](C)Oc2ccc(NC(=O)NC3CCCCC3)cc2C1=O | -0.008% (inactive) |  |
| CC(C)NC(=O)Nc1ccc2c(c1)C(=O)N([C@@H](C)CO)C[C@@H](C)[C@H](CN(C)Cc1ccncc1)OCCCC[C@@H](C)O2 | 75.6% (inactive) |  |
| CC(C)NC(=O)Nc1ccc2c(c1)C(=O)N([C@@H](C)CO)C[C@@H](C)[C@@H](CN(C)C(=O)NC(C)C)OCCCC[C@@H](C)O2 | 20.5% (inactive) |  |
| Cc1ccc(CSc2ncnc3c2cnn3-c2ccc(C)cc2)cc1 | -28.8% (inactive) |  |
